Laboratory results as given in paper PMC2790607, “Finding of the Low Molecular Weight Inhibitors of Resuscitation Promoting Factor Enzymatic and Resuscitation Activity” (PLoS ONE, 2009).
Values after ≈ are worked out from the molar mass of the structure shown. Where two headings read alike, the source gives them in different places.

Assays:
[1] = biological target: T1, Rpf Sm (Micrococcus luteus, UniProt O86308); experiment: Muralytic activity of Rpf, 4-MUF-3-NAG hydrolysis; assay type: biochemical, M. luteus
T1 construct: His-tag (inferred from the pET19b vector and the Ni2+-chelation purification); made in house; host or cells: E. coli HSM174 (DE3)
T1 sequence (O86308 42-134): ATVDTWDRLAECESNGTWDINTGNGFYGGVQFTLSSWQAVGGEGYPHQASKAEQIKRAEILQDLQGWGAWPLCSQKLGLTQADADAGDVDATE
Experimental: The truncated form of M.luteus Rpf (RpfSm) was used for the analysis. The truncated protein contained conserved Rpf domain and additional 20 amino acids of the gene product, corresponding to the following amino acid sequence:
To determine a muralytic activity of the recombinant Rpfs', 4-methylumbelliferyl-β-D-N, N′, N″-triacetylchitotrioside (4-MUF-3-NAG) (“Sigma”, Germany) was applied. […] A number of experiments were performed in the presence of NPT compounds, in concentration range of 0.5–10 µg/ml. After 3 hours of incubation at 37°C, 2 µl of 10 M NaOH was added and the samples were frozen and kept at −20°C. […] The intensity of fluorescence was detected by the RF-5301PC fluorimeter (“SHIMADZU”, Japan) using excitation wavelength of 364 nm and a read-out of 448 nm.

[2] = tested on: M. tuberculosis "non-culturable" cells; assay type: cell-based, Mycobacterium tuberculosis; conditions: for effect on resuscitation of M. tuberculosis "non-culturable" cells: 10 µg/ml, MPN assay, versus untreated resuscitating cells; for MPN, logarithmic transformation of cell concentration (cells/ml): inhibitor 10 µg/ml
[3] = tested on: Micrococcus luteus; experiment: microbe, parasite or virus in culture; assay type: cell-based; conditions: for MIC: Micrococcus luteus, lowest concentration which suppresses growth, determined during 24 hours, NI = no inhibition was observed; for effect on M. luteus growth: NB liquid medium
[4] = biological target: ΔDUFRpf B (Mycobacterium tuberculosis, UniProt P9WG29); assay type: binding, M. tuberculosis
Chain of ΔDUFRpf B (P9WG29 whole entry, looked up, stated change not applied): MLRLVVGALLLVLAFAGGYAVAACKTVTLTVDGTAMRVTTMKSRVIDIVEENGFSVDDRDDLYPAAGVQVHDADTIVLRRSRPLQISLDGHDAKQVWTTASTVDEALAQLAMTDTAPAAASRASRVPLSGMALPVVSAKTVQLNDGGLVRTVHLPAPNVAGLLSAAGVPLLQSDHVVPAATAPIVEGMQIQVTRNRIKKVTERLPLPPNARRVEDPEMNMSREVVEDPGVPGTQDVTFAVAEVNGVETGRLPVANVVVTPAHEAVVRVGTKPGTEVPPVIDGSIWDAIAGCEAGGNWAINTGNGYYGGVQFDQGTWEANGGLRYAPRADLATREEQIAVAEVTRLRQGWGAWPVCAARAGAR

[5] = tested on: M. smegmatis "non-culturable" cells; assay type: cell-based, Mycobacterium smegmatis; conditions: MPN assay
[6] = tested on: Alcoholdehydrohenase(1.1.1.1); experiment: Alcoholdehydrogenase activity (NAD+ to NADH, OD340); assay type: biochemical; conditions: control 1.7
Experimental: (§1) Alcoholdehydrohenase(1.1.1.1) activity: ADH was dissolved in 50 mM phospahe buffer pH 7 at the concentration 10 µg/ml. The rate of the reaction was judged by transformation of NAD^+ (1 mM) into NADH+H^+. As the substrate ethanol was used. Activity was measured by OD340. Laccase(1.10.3.2) activity: Laccase was dissolved in the 50 mM citrate-phosphate buffer, pH4.5 at concentration 9 µg/ml. Pyrocatechin was used at concentration 11 µg/ml. Activity was measured by OD410. Trypsin(3.4.21.4) activity: The enzyme at concentration 8.0 µg/ml was dissolved in 50 mM Tris-HCl buffer pH 8.0. Concentration of the substrate (N-CBz-Gly-Gly-Arg-β-naphthylamide - Sigma-Aldrich)- 11 µg/ml. Registration of the kinetic curves was made fluorimetrically - excitation wavelength - 330 nm; emission - 420 nm. (0.02 MB DOC) Click here for additional data file.

[7] = tested on: Laccase(1.10.3.2); experiment: Laccase activity (pyrocatechin, OD410); assay type: biochemical; conditions: control 3.6
Experimental: as §1

[8] = tested on: Trypsin(3.4.21.4); experiment: Trypsin activity (fluorimetric); assay type: biochemical; conditions: control 10
Experimental: as §1

[9] = tested on: M. smegmatis; assay type: cell-based, Mycobacterium smegmatis; conditions: at 0.1–1 µg/ml (not shown)
[10] = pH 6.0, 3 hours at 37°C, NI = no inhibition was observed, read-out: 4-MUF-3-NAG hydrolysis IC50, Rpf Sm (converted)

| Compound | IC50 [1, 10] [µM] | effect on resuscitation of M. tuberculosis "non-culturable" cells [2] | melting point [°C] | MIC [3] [µg/mL] | IC50 [1] [µM] | MPN, logarithmic transformation of cell concentration (cells/ml) ([2]; time 0 days) | MPN, logarithmic transformation of cell concentration (cells/ml) ([2]; time 14 days) | MPN, logarithmic transformation of cell concentration (cells/ml) ([2]; time 19 days) | MPN, logarithmic transformation of cell concentration (cells/ml) ([2]; time 21 days) | MPN, logarithmic transformation of cell concentration (cells/ml) ([2]; time 23 days) | MPN, logarithmic transformation of cell concentration (cells/ml) ([2]; time 27 days) | MPN, logarithmic transformation of cell concentration (cells/ml) ([2]; time 30 days) | MPN, logarithmic transformation of cell concentration (cells/ml) ([2]; time 33 days) | MPN, logarithmic transformation of cell concentration (cells/ml) ([2]; time 36 days) | MPN, logarithmic transformation of cell concentration (cells/ml) ([2]; time 40 days) | concentrations active in suppressing resuscitation of M. smegmatis [5] [µg/mL] | growth of active cells of M. smegmatis [9] | also measured |
| --- | --- | --- | --- | --- | --- | --- | --- | --- | --- | --- | --- | --- | --- | --- | --- | --- | --- | --- |
| COc1ncnc(SC#N)c1[N+](=O)[O-] [I, 4-Methoxy-5-nitro-6-thiocyanatopyrimidine] | 25 | had no influence on the resuscitation kinetics | 54 to 56 |  |  |  |  |  |  |  |  |  |  |  |  |  |  |  |
| CC(=O)c1ccc(SC#N)c([N+](=O)[O-])c1 [VI, 4-Acetyl-2-nitrophenyl thiocyanate] |  |  | 96 to 98 | 5 (≈ 22.5 µM) | 9.9 | 3.48 | 3.48 | 3.48 | 3.48 | 3.56 | 3.96 | 4.66 | 5.38 | 5.97 | 6.18 |  |  |  |
| CCOC(=O)c1ccc(SC#N)c([N+](=O)[O-])c1 [X, 3-nitro-4-thiocyanatobenzoic acid ethyl ester] | 10.3 | increased time which need for developing of visible growth in the MPN assay and decreased the final values of MPN |  | 10 (≈ 39.6 µM) |  | 3.48 | 3.48 | 3.48 | 3.48 | 3.48 | 4.36 | 4.97 | 5.38 | 5.38 | 5.38 |  |  |  |
| [I-].[K+] [iodide, reference compound] |  |  |  |  |  |  |  |  |  |  |  |  |  |  |  |  |  | accessible fraction of ΔDUFRpfB tryptophanes (fa) ([4]; modified Stern-Volmer equation, excitation 280 nm, emission 340 nm): ~40% |
| N#CSc1cc(SC#N)c([N+](=O)[O-])cc1[N+](=O)[O-] [III, 1,5-Dinitro-2,4-dithiocyanatobenzene] | 4.25 | practically did not influence resuscitation | 78 to 80 | 5 (≈ 17.7 µM) |  | 3.48 | 3.48 | 3.86 | 4.63 | 4.63 | 5.66 | 6.38 | 6.38 | 6.38 | 6.38 | 0.1 to 1 | did not inhibit growth | τ1/2, time needed to achieve a 50% level of substrate conversion, Alchoholdehydrohenase ([6]; compound 4 µg/ml): 1.7 s; τ1/2, time needed to achieve a 50% level of substrate conversion, Alchoholdehydrohenase ([6]; compound 10 µg/ml): 1.7 s; τ1/2, time needed to achieve a 50% level of substrate conversion, Laccase ([7]; compound 4 µg/ml): 3.6 s; τ1/2, time needed to achieve a 50% level of substrate conversion, Laccase ([7]; compound 10 µg/ml): 3.5 s; τ1/2, time needed to achieve a 50% level of substrate conversion, Trypsin ([8]; compound 4 µg/ml): 10 s; τ1/2, time needed to achieve a 50% level of substrate conversion, Trypsin ([8]; compound 10 µg/ml): 10 s |
| COC(=O)c1ccc(SC#N)c([N+](=O)[O-])c1 [IX, 3-Nitro-4-thiocyanatobenzoic acid methyl ester] |  | increased time which need for developing of visible growth in the MPN assay and decreased the final values of MPN |  | 5 to 10 (≈ 21 to 42 µM) | 23.5 | 3.48 | 3.48 | 3.48 | 3.56 | 3.96 | 4.32 | 5.66 | 5.66 | 5.66 | 5.66 | 0.1 to 1 | did not inhibit growth |  |
| N#CSc1ccc(C(=O)O)cc1[N+](=O)[O-] [VIII, 3-Nitro-4-thiocyanatobenzoic acid] |  | had no influence on the resuscitation kinetics | 220 to 224 |  |  |  |  |  |  |  |  |  |  |  |  |  |  | effect on M. luteus growth [3]: had no effect on M. luteus growth; interaction with the buried tryptophanes of ΔDUFRpfB ([4]; fluorescence studies): doesn't interact with the buried tryptophanes; effect on resuscitation of M. smegmatis "non-culturable" cells ([5]; inhibitors at 1 µg/ml, 2 weeks at 37°C): failure |
| N#CSc1ccc(C#N)cc1[N+](=O)[O-] [V, 3-Nitro-4-thiocyanobenzonitryl] |  |  | 143 to 145 | 1 to 5 (≈ 4.87 to 24.4 µM) | 25.3 | 3.48 | 3.48 | 3.48 | 3.48 | 3.48 | 3.86 | 4.30 | 5.66 | 5.66 | 5.66 |  |  |  |
| CC(C)Nc1ncnc(SC#N)c1[N+](=O)[O-] [II, 4-Isopropylamino-5-nitro-6-thiocyanatopyrimidine] |  |  | 96 to 98 |  |  |  |  |  |  |  |  |  |  |  |  |  |  | effect on M. luteus growth [3]: had no effect on M. luteus growth |
| N#CSc1ccc(C(F)(F)F)cc1[N+](=O)[O-] [IV, 2-Nitro-4-(trifluoromethyl)-phenylthiocyanate] | 21.4 | increased time which need for developing of visible growth in the MPN assay and decreased the final values of MPN | 78 to 81 | 5 (≈ 20.1 µM) |  | 3.48 | 3.48 | 3.56 | 3.96 | 4.36 | 5.38 | 5.66 | 5.66 | 5.66 | 5.66 | 0.1 to 1 | did not inhibit growth |  |
